In the oligonucleotide strings, read from the 5' end, every base follows the letter of its sugar. An asterisk marks phosphorothioate; unmarked linkages are phosphodiester. Other units and linkages are bracketed, terminal groups are in braces. A string of capitals states the bases alone. e = 2'-O-(2-methoxyethyl) (MOE); [5mC] = 5-methylcytosine
What was measured:
Type in all cases: cell-based, human
aP2 = aP2 mRNA expression in adipocytes (real-time PCR); conditions: for aP2 mRNA: differentiating adipocytes transfected with oligomeric compound, Table 75; for AP2 mRNA: Table 18, differentiating adipocytes, control = treatment with ISIS 342673
Procedure: (§1) Expression of the four hallmark genes, HSL, aP2, Glut4, and PPARγ, is also measured in adipocytes transfected with oligomeric compounds of the invention. Cells are lysed on day nine post-transfection and total RNA is harvested. The amount of total RNA in each sample is determined using a Ribogreen Assay (Invitrogen Life Technologies, Carlsbad, Calif.).
(§2) For assaying adipocyte differentiation, expression of the four hallmark genes, HSL, aP2, Glut4, and PPARγ, as well as triglyceride (TG) accumulation and leptin secretion were measured in adipocytes transfected with the uniform 2′-MOE phosphorothioate (PS) oligomeric compounds previously described. Cells are lysed on day nine post-transfection, in a guanadinium-containing buffer and total RNA is harvested. Real-time PCR is performed (Applied Biosystems, Prism 7700) on the total RNA using the following primer/probe sets for the adipocyte differentiation hallmark genes: (aP2): forward 5′-GGTGGTGGAATGCGTCATG-3′ (SEQ ID NO: 746), reverse 5′-[…]-3′ (SEQ ID NO: 747), probe 5′-FAM-[…]-TAMRA-3′ (SEQ ID NO: 748); (Glut4): forward 5′-GGCCTCCGCAGGTTCTG-3′ (SEQ ID NO: 749), reverse 5′-[…]-3′ (SEQ ID NO: 750), probe 5′-FAM-[…]-TAMRA-3′ (SEQ ID NO: 751); (HSL): forward 5′-ACCTGCGCACAATGACACA-3′ (SEQ ID NO: 752), reverse 5′-[…]-3′ (SEQ ID NO: 753), probe 5′-FAM-[…]-TAMRA-3′ (SEQ ID NO: 754); (PPAR-γ): forward 5′-[…]-3′ (SEQ ID NO: 755), reverse 5′-[…]-3′ (SEQ ID NO: 756), probe 5′-FAM-[…]-TAMRA-3′ (SEQ ID NO: 757). The amount of total RNA in each sample is determined using a Ribogreen Assay (Molecular Probes, Eugene, Oreg.), and expression levels of the adipocyte differentiation hallmark genes were normalized to total RNA.

HSL = HSL mRNA expression in adipocytes (real-time PCR)
Procedure: as §1, §2

Glut4 = Glut4 mRNA expression in adipocytes (real-time PCR)
Procedure: as §1, §2

adipocytes = assay: Triglyceride accumulation assay in adipocytes
Procedure: The triglyceride accumulation assay measures the synthesis of triglyceride by adipocytes. Triglyceride accumulation is measured using the Infinity™ Triglyceride reagent kit (Sigma-Aldrich, St. Louis, Mo.). On day nine post-transfection, cells are washed and lysed at room temperature, and the triglyceride assay reagent is added. Triglyceride accumulation is measured based on the amount of glycerol liberated from triglycerides by the enzyme lipoprotein lipase. Liberated glycerol is phosphorylated by glycerol kinase, and hydrogen peroxide is generated during the oxidation of glycerol-1-phosphate to dihydroxyacetone phosphate by glycerol phosphate oxidase. Horseradish peroxidase (HRP) uses H2O2 to oxidize 4-aminoantipyrine and 3,5 dichloro-2-hydroxybenzene sulfonate to produce a red-colored dye. Dye absorbance, which is proportional to the concentration of glycerol, is measured at 515 nm using an UV spectrophotometer. Glycerol concentration is calculated from a standard curve for each assay, and data are normalized to total cellular protein as determined by a Bradford assay (Bio-Rad Laboratories, Hercules, Calif.).
An increase in triglyceride content is another well-established marker for adipocyte differentiation. The triglyceride accumulation assay measures the synthesis of triglyceride by adipocytes. Triglyceride accumulation was measured using the Infinity™ Triglyceride reagent kit (Sigma-Aldrich, St. Louis, Mo.). Human white preadipocytes (Zen-Bio Inc., Research Triangle Park, N.C.) were grown in preadipocyte media (ZenBio Inc.). One day before transfection, 96-well plates were seeded with 3000 cells/well. Cells were transfected according to standard published procedures with 250 nM oligomeric compound in LIPOFECTIN™ (Invitrogen Corporation, Carlsbad, Calif.) (Monia et al., J. Biol. Chem. 1993 268(19):14514-22). Oligomeric compounds were tested in triplicate on each 96-well plate, and the effects of TNF-α, a positive drug control that inhibits adipocyte differentiation, were also measured in triplicate. Negative and transfectant-only controls may be measured up to six times per plate. After the cells have reached confluence (approximately three days), they were exposed to differentiation media (Zen-Bio, Inc.) containing a PPAR-γ agonist, IBMX, dexamethasone, and insulin for three days. Cells were then fed adipocyte media (Zen-Bio, Inc.), which was replaced at 2 to 3 day intervals. […] Triglyceride accumulation was measured based on the amount of glycerol liberated from triglycerides by the enzyme lipoprotein lipase. Liberated glycerol is phosphorylated by glycerol kinase, and hydrogen peroxide is generated during the oxidation of glycerol-1-phosphate to dihydroxyacetone phosphate by glycerol phosphate oxidase. Horseradish peroxidase (HRP) uses H2O2 to oxidize 4-aminoantipyrine and 3,5 dichloro-2-hydroxybenzene sulfonate to produce a red-colored dye. Dye absorbance, which is proportional to the concentration of glycerol, was measured at 515 nm using an UV spectrophotometer. Glycerol concentration was calculated from a standard curve for each assay, and data were normalized to total cellular protein as determined by a Bradford assay (Bio-Rad Laboratories, Hercules, Calif.). Results are expressed as a percent±standard deviation relative to transfectant-only control.

PPARγ = PPARγ mRNA expression in adipocytes (real-time PCR)
Procedure: as §1, §2

[1] = differentiating adipocytes transfected with oligomeric compound, Table 75
[2] = Table 18, differentiating adipocytes, control = treatment with ISIS 342673

Row | Substance | aP2 mRNA (aP2) | HSL mRNA (HSL; [1]) | GLUT4 mRNA (Glut4; [1]) | TG (triglyceride accumulation) (adipocytes; [1]) | PPAR gamma mRNA (PPARγ; [1]) | AP2 mRNA (aP2) | HSL mRNA (HSL; [2]) | GLUT4 mRNA (Glut4; [2]) | TG (triglyceride accumulation) (adipocytes; [2]) | PPAR gamma mRNA (PPARγ; [2])
1 | 328095 (antisense eT*e[5mC]*eA*e[5mC]*eA*eG*eA*eG*eA*eA*eA*eA*e[5mC]*eA*eA*e[5mC]*eT*eG*eG*eT*eA) [compound 328095] | 70 percentage of untreated control (UTC) | 83 percentage of untreated control (UTC) | 98 percentage of untreated control (UTC) | 110 percentage of untreated control (UTC) | 92 percentage of untreated control (UTC) |  |  |  |  | 
2 | 328096 (antisense e[5mC]*e[5mC]*eT*e[5mC]*eT*e[5mC]*eA*eA*eA*eG*eA*eT*eT*eT*e[5mC]*e[5mC]*eT*eG*eT*e[5mC]*eA) [compound 328096] | 71 percentage of untreated control (UTC) | 76 percentage of untreated control (UTC) | 79 percentage of untreated control (UTC) | 74 percentage of untreated control (UTC) | 89 percentage of untreated control (UTC) |  |  |  |  | 
3 | 328097 (antisense eT*eG*eT*e[5mC]*eA*eG*eA*eT*eA*eA*eA*e[5mC]*eA*eG*eA*eG*eT*eG*eG*eA*eA) [compound 328097] | 48 percentage of untreated control (UTC) | 54 percentage of untreated control (UTC) | 62 percentage of untreated control (UTC) | 65 percentage of untreated control (UTC) | 63 percentage of untreated control (UTC) |  |  |  |  | 
4 | 328098 (antisense eG*eA*eG*eA*eA*eT*e[5mC]*eA*eA*eT*eA*eG*eG*eG*e[5mC]*eA*eT*eG*e[5mC]*eA*eA) [compound 328098] | 23 percentage of untreated control (UTC) | 28 percentage of untreated control (UTC) | 25 percentage of untreated control (UTC) | 39 percentage of untreated control (UTC) | 54 percentage of untreated control (UTC) |  |  |  |  | 
5 | 328099 (antisense eA*eA*eG*eA*eA*e[5mC]*eA*eT*eT*eA*eA*eG*e[5mC]*eA*eT*e[5mC]*eT*eG*eA*e[5mC]*eA) [compound 328099] | 80 percentage of untreated control (UTC) | 74 percentage of untreated control (UTC) | 61 percentage of untreated control (UTC) | 57 percentage of untreated control (UTC) | 72 percentage of untreated control (UTC) | 85.9 percentage of control | 88.4 percentage of control | 86.8 percentage of control | 93.9 percentage of control | 81.9 percentage of control
6 | 328100 (antisense eA*eA*eT*e[5mC]*eT*e[5mC]*eT*eG*e[5mC]*eA*eG*eG*e[5mC]*eA*eA*eA*eT*eG*eT*eG*eA) [compound 328100] | 47 percentage of untreated control (UTC) | 49 percentage of untreated control (UTC) | 39 percentage of untreated control (UTC) | 20 percentage of untreated control (UTC) | 48 percentage of untreated control (UTC) | 61.9 percentage of control | 72.0 percentage of control | 74.2 percentage of control | 71.5 percentage of control | 66.7 percentage of control
7 | 328101 (antisense eA*eA*eA*e[5mC]*e[5mC]*e[5mC]*e[5mC]*eT*eA*eT*e[5mC]*eA*e[5mC]*eG*eA*eT*eT*eA*eG*e[5mC]*eA) [compound 328101] | 83 percentage of untreated control (UTC) | 78 percentage of untreated control (UTC) | 57 percentage of untreated control (UTC) | 67 percentage of untreated control (UTC) | 70 percentage of untreated control (UTC) | 83.2 percentage of control | 91.8 percentage of control | 84.7 percentage of control | 108.6 percentage of control | 79.3 percentage of control
8 | 328102 (antisense eG*e[5mC]*e[5mC]*e[5mC]*e[5mC]*eA*eT*eT*eA*eA*eT*eA*eT*eT*eT*eT*eA*eA*e[5mC]*e[5mC]*eA) [compound 328102] | 96 percentage of untreated control (UTC) | 99 percentage of untreated control (UTC) | 58 percentage of untreated control (UTC) | 70 percentage of untreated control (UTC) | 94 percentage of untreated control (UTC) | 87.9 percentage of control | 97.0 percentage of control | 79.2 percentage of control | 95.9 percentage of control | 93.7 percentage of control
9 | 328103 (antisense e[5mC]*e[5mC]*e[5mC]*eA*eA*eT*eA*eT*e[5mC]*eA*eA*eA*e[5mC]*eA*eT*eA*eT*e[5mC]*eA) [compound 328103] | 96 percentage of untreated control (UTC) | 87 percentage of untreated control (UTC) | 86 percentage of untreated control (UTC) | 113 percentage of untreated control (UTC) | 83 percentage of untreated control (UTC) | 83.2 percentage of control | 82.5 percentage of control | 94.3 percentage of control | 110.2 percentage of control | 74.3 percentage of control
10 | 328104 (antisense eT*eA*eT*eG*eA*eT*eA*eG*e[5mC]*eT*eT*e[5mC]*e[5mC]*e[5mC]*e[5mC]*eA*eT*eG*eT*eA*eA) [compound 328104] | 94 percentage of untreated control (UTC) | 81 percentage of untreated control (UTC) | 83 percentage of untreated control (UTC) | 64 percentage of untreated control (UTC) | 73 percentage of untreated control (UTC) | 102.2 percentage of control | 98.2 percentage of control | 119.1 percentage of control | 122.6 percentage of control | 90.4 percentage of control
